Structures are written as SMILES.

Results on 19 compounds are retold here after ChEMBL document CHEMBL1153508, “Evaluation of hydrogen bonds of ecdysteroids in the ligand-receptor interactions using a protein modeling system” (Bioorg Med Chem, 2009).

In this test the target is T1, Ecdysone receptor (Drosophila melanogaster, UniProt P34021).
T1 sequence (P34021 whole entry): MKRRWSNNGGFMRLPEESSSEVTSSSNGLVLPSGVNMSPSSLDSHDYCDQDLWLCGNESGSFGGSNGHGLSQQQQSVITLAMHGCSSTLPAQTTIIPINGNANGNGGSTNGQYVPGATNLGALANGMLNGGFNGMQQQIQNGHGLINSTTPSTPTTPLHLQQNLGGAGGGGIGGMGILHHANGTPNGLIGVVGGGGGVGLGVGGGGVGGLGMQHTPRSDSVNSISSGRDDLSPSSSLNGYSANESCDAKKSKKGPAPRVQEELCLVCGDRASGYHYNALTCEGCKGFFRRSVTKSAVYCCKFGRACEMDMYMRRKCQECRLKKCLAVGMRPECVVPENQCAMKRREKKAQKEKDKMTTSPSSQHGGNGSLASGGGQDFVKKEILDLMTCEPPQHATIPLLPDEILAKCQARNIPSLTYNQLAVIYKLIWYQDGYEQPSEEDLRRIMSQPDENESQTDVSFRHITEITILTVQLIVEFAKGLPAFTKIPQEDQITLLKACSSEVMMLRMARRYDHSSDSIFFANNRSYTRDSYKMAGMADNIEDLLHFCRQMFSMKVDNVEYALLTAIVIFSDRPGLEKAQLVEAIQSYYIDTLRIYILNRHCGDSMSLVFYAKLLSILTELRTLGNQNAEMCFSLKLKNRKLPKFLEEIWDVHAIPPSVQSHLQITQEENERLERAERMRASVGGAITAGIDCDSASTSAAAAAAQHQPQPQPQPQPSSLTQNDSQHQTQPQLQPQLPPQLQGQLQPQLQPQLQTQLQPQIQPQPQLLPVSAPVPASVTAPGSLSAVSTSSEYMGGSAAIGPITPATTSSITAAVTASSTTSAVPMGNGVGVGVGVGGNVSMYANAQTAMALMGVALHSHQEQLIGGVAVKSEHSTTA
The experiment in a line: Binding affinity to ecdysone receptor ligand binding domain in Drosophila melanogaster assessed as number of hydrogen bonds formed.
For `CC(C)CC[C@@H](O)[C@](C)(O)[C@H]1CC[C@H]2[C@@H]3CC[C@H]4CCCC[C@]4(C)[C@H]3CC[C@]12C`, the half-inhibitory concentration (IC50) was above 245000 nM.
In the case of `CC(C)CC[C@@H](O)[C@](C)(O)[C@H]1CC[C@H]2[C@@H]3CC[C@H]4C[C@@H](O)CC[C@]4(C)[C@H]3CC[C@]12C`, the 50% inhibitory concentration (IC50) is 41700 nM.
Consider `CC(C)CC[C@@H](O)[C@](C)(O)[C@H]1CC[C@H]2[C@@H]3CC(=O)[C@@H]4C[C@H](O)CC[C@]4(C)[C@H]3CC[C@]12C`, for which the IC50 is 89100 nM.
In the case of `CC(C)CC[C@@H](O)[C@](C)(O)[C@H]1CC[C@H]2[C@@H]3C[C@@H](O)[C@H]4C[C@@H](O)CC[C@]4(C)[C@H]3CC[C@]12C` it was above 245000 nM.
Take `CC(C)CC[C@@H](O)[C@](C)(O)[C@H]1CC[C@H]2[C@@H]3CC(=O)[C@@H]4C[C@@H](O)[C@@H](O)C[C@]4(C)[C@H]3CC[C@]12C`: the concentration for half-maximal inhibition (IC50) is 58.9 nM.
`CC(C)CC[C@@H](O)[C@](C)(O)[C@H]1CC[C@H]2[C@@H]3CC=C4CCCC[C@]4(C)[C@H]3CC[C@]12C`: the IC50 is above 245000 nM.
In the case of `CC(C)CC[C@@H](O)[C@](C)(O)[C@H]1CC[C@H]2[C@@H]3CC(=O)[C@H]4C[C@H](O)CC[C@]4(C)[C@H]3CC[C@]12C`, the IC50 is 794 nM.
With `CC(C)CC[C@@H](O)[C@](C)(O)[C@H]1CC[C@H]2[C@@H]3C[C@H](O)[C@H]4C[C@@H](O)CC[C@]4(C)[C@H]3CC[C@]12C` the figure was above 245000 nM.
On to `CC(C)CC[C@@H](O)[C@](C)(O)[C@H]1CC[C@H]2[C@@H]3CC=C4C[C@@H](O)CC[C@]4(C)[C@H]3CC[C@]12C`, for which the half-inhibitory concentration (IC50) is 41700 nM.
With `CC(C)CC[C@@H](O)[C@](C)(O)[C@H]1CC[C@H]2[C@@H]3CC(=O)[C@H]4C[C@@H](O)CC[C@]4(C)[C@H]3CC[C@]12C`, the half-maximal inhibitory concentration (IC50) was 9550 nM.
In the case of `CC(C)CC[C@@H](O)[C@](C)(O)[C@H]1CC[C@H]2[C@@H]3CC(=O)[C@H]4C[C@@H](O)[C@@H](O)C[C@]4(C)[C@H]3CC[C@]12C` it was 14500 nM; in that of `CC(C)CC[C@H](O)[C@](C)(O)[C@H]1CC[C@H]2[C@@H]3CC(=O)[C@H]4C[C@H](O)[C@H](O)C[C@]4(C)[C@H]3CC[C@]12C`, 38900 nM; in that of `CC(C)CC[C@@H](O)[C@](C)(O)[C@H]1CC[C@H]2[C@@H]3CC(=O)[C@H]4C[C@H](O)[C@H](O)C[C@]4(C)[C@H]3CC[C@]12C`, 324 nM.
As to `CC(C)(O)CC[C@@H](O)[C@](C)(O)[C@H]1CC[C@@]2(O)C3=CC(=O)[C@@H]4C[C@@H](O)[C@@H](O)C[C@]4(C)[C@H]3CC[C@]12C` [20-HYDROXYECDYSONE], the half-maximal inhibitory concentration (IC50) is 45.7 nM.
With `C[C@@H]1C(=O)O[C@H](C)[C@H]1C[C@@H](O)[C@](C)(O)[C@H]1CC[C@@]2(O)C3=CC(=O)[C@@H]4C[C@@H](O)[C@@H](O)C[C@]4(C)[C@H]3CC[C@]12C` [CYASTERONE], the IC50 was 61.7 nM.
In the case of `C[C@H]([C@H](O)CCC(C)(C)O)[C@H]1CC[C@@]2(O)C3=CC(=O)[C@@H]4C[C@@H](O)[C@@H](O)C[C@]4(C)[C@H]3CC[C@]12C` [ECDYSONE], the half-maximal inhibitory concentration (IC50) is 2570 nM.
For the compound `CC(CO)CC[C@@H](O)[C@](C)(O)[C@H]1CC[C@@]2(O)C3=CC(=O)[C@@H]4C[C@@H](O)[C@@H](O)C[C@]4(C)[C@H]3CC[C@]12C` (some centres undefined) [INOKOSTERONE], the IC50 is 91.2 nM.
Turning to `C[C@H](C[C@@H](O)[C@](C)(O)[C@H]1CC[C@@]2(O)C3=CC(=O)[C@@H]4C[C@@H](O)[C@@H](O)C[C@]4(C)[C@H]3CC[C@]12C)C(C)(C)O` [MAKISTERONE A], the IC50 is 112 nM.
In the case of `CC(C)CC[C@@H](O)[C@](C)(O)[C@H]1CC[C@@]2(O)C3=CC(=O)[C@@H]4C[C@@H](O)[C@@H](O)C[C@]4(C)[C@H]3CC[C@]12C` [PONASTERONE A] it was 1.29 nM.
